ChEMBL document CHEMBL1201862, “PubChem BioAssay data set” (2004)
“And” between values parts separate entries of the source, which are not always exact repeats. Equal entries are not always repeated.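 Values below derive from 48-hour exposures of cells grown in 96-well plates, with endpoints linearly interpolated between the two concentrations bracketing the appropriate inhibition level. GI50: concentration for 50% inhibition of growth.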 The source made the active and inactive calls. Rule as the data show it: active = GI50 up to about 1.1 µM and inactive = higher.

Columns and labels:
Test in all cases: DTP human tumour cell line panel, 48 h
NCI-H226 = test system: NCI-H226
SNB-78 = test system: SNB-78
KM-20L2 = test system: KM-20L2
HOP-92 = test system: HOP-92
LXFL 529 = test system: LXFL 529
DMS-273 = test system: DMS-273
OVCAR-4 = test system: OVCAR-4
DLD-1 = test system: DLD-1
COLO 205 = test system: COLO 205
UACC-257 = test system: UACC-257
SNB-75 = test system: SNB-75
OVCAR-5 = test system: OVCAR-5
SR = test system: SR
HCC 2998 = test system: HCC 2998
CAKI-1 = test system: CAKI-1
SK-MEL-5 = test system: SK-MEL-5
TK-10 = test system: TK-10
EKVX = test system: EKVX
KM12 = test system: KM12
RPMI-8226 = test system: RPMI-8226
NCI-H23 = test system: NCI-H23
M19-MEL = test system: M19-MEL
A549 = test system: A549
SW-620 = test system: SW-620
MOLT-4 = test system: MOLT-4
DMS-114 = test system: DMS-114
CCRF-CEM = test system: CCRF-CEM
OVCAR-8 = test system: OVCAR-8
U-251 = test system: U-251
SK-OV-3 = test system: SK-OV-3
OVCAR-3 = test system: OVCAR-3
SNB-19 = test system: SNB-19
HL-60 = test system: HL-60
HT-29 = test system: HT-29
LOX IMVI = test system: LOX IMVI
UACC-62 = test system: UACC-62
SK-MEL-28 = test system: SK-MEL-28
M14 = test system: M14
NCI-H522 = test system: NCI-H522
RXF 393 = test system: RXF 393
SF-539 = test system: SF-539
IGROV-1 = test system: IGROV-1
K562 = test system: K562
NCI-H460 = test system: NCI-H460
MCF7 = test system: MCF7
A498 = test system: A498
UO-31 = test system: UO-31
SK-MEL-2 = test system: SK-MEL-2
SF-295 = test system: SF-295
BT-549 = test system: BT-549
HOP-62 = test system: HOP-62
HCT-116 = test system: HCT-116
NCI/ADR-RES = test system: NCI/ADR-RES
PC-3 = test system: PC-3
T47D = test system: T47D
HCT-15 = test system: HCT-15
786-0 = test system: 786-0
DU-145 = test system: DU-145
ACHN = test system: ACHN
MDA-MB-231 = test system: MDA-MB-231
SF-268 = test system: SF-268
SN12C = test system: SN12C
Hs-578T = test system: Hs-578T
MDA-N = test system: MDA-N
Malme-3M = test system: Malme-3M
MDA-MB-435 = test system: MDA-MB-435

COc1ccc(-c2cc(-c3ccco3)c(C#N)c(=O)n2C2OC(COC(C)=O)C(OC(C)=O)C(OC(C)=O)C2OC(C)=O)cc1 (stereo not given)
GI50 (NCI-H226): 2.63 µM (inactive) | GI50 (SNB-78): > 100 µM (inactive) | GI50 (KM-20L2): > 100 µM (inactive) | GI50 (HOP-92): 24.9 µM (inactive) and 22.1 µM (inactive) | GI50 (LXFL 529): 11.4 µM (inactive) | GI50 (DMS-273): > 100 µM (inactive) | GI50 (OVCAR-4): > 100 µM (inactive) | GI50 (DLD-1): 50.9 µM (inactive) | GI50 (COLO 205): > 100 µM (inactive) | GI50 (UACC-257): > 100 µM (inactive) | GI50 (SNB-75): > 100 µM (inactive) and 58.9 µM (inactive) | GI50 (OVCAR-5): > 100 µM (inactive) | GI50 (SR): > 100 µM (inactive) | GI50 (HCC 2998): > 100 µM (inactive) | GI50 (CAKI-1): > 100 µM (inactive) and 63.5 µM (inactive) | GI50 (SK-MEL-5): > 100 µM (inactive) | GI50 (TK-10): 20 µM (inactive) and 28.1 µM (inactive) | GI50 (EKVX): > 100 µM (inactive) | GI50 (KM12): 69.7 µM (inactive) | GI50 (RPMI-8226): 5.58 µM (inactive) and 3.96 µM (inactive) | GI50 (NCI-H23): > 100 µM (inactive) | GI50 (M19-MEL): 76 µM (inactive) | GI50 (A549): > 100 µM (inactive) | GI50 (SW-620): > 100 µM (inactive) | GI50 (MOLT-4): > 100 µM (inactive)

CCSc1nc2cccc([N+](=O)[O-])c2n1CC
GI50 (NCI-H226): > 100 µM (inactive) | GI50 (DMS-114): > 100 µM (inactive) | GI50 (CCRF-CEM): > 100 µM (inactive) | GI50 (SNB-78): > 100 µM (inactive) | GI50 (OVCAR-8): > 100 µM (inactive) | GI50 (HOP-92): > 100 µM (inactive) | GI50 (U-251): > 100 µM (inactive) | GI50 (SK-OV-3): > 100 µM (inactive) | GI50 (LXFL 529): > 100 µM (inactive) | GI50 (OVCAR-3): > 100 µM (inactive) | GI50 (DMS-273): > 100 µM (inactive) | GI50 (OVCAR-4): > 100 µM (inactive) | GI50 (SNB-19): > 100 µM (inactive) | GI50 (HL-60): > 100 µM (inactive) | GI50 (DLD-1): > 100 µM (inactive) | GI50 (COLO 205): > 100 µM (inactive) | GI50 (UACC-257): > 100 µM (inactive) | GI50 (SNB-75): > 100 µM (inactive) | GI50 (HT-29): > 100 µM (inactive) | GI50 (LOX IMVI): > 100 µM (inactive) | GI50 (UACC-62): > 100 µM (inactive) | GI50 (HCC 2998): > 100 µM (inactive) | GI50 (CAKI-1): > 100 µM (inactive) | GI50 (SK-MEL-5): > 100 µM (inactive) | GI50 (TK-10): > 100 µM (inactive) | GI50 (SK-MEL-28): > 100 µM (inactive) | GI50 (EKVX): > 100 µM (inactive) | GI50 (KM12): > 100 µM (inactive) | GI50 (M14): > 100 µM (inactive) | GI50 (RPMI-8226): > 100 µM (inactive) | GI50 (NCI-H23): > 100 µM (inactive) | GI50 (NCI-H522): > 100 µM (inactive) | GI50 (RXF 393): > 100 µM (inactive) | GI50 (SF-539): > 100 µM (inactive) | GI50 (A549): > 100 µM (inactive) | GI50 (IGROV-1): > 100 µM (inactive) | GI50 (K562): > 100 µM (inactive) | GI50 (SW-620): > 100 µM (inactive) | GI50 (MOLT-4): > 100 µM (inactive) | GI50 (NCI-H460): > 100 µM (inactive)

NC(=O)c1cn(C2OC(CO)C(O)C2O)c2ncnc(N)c12 (stereo not given)
GI50 (U-251): 0.07 µM (active) | GI50 (DMS-273): 0.0213 µM (active) | GI50 (MCF7): 0.07 µM (active) | GI50 (A498): 0.0724 µM (active) | GI50 (EKVX): 0.0453 µM (active) | GI50 (UO-31): 0.07 µM (active)

Nc1nc(Cl)c(N)c(NCC2(CO)CC(O)C2)n1 (stereo not given)
GI50 (NCI-H226): > 100 µM (inactive) | GI50 (CCRF-CEM): > 100 µM (inactive) | GI50 (SK-MEL-2): > 100 µM (inactive) | GI50 (OVCAR-8): > 100 µM (inactive) | GI50 (SF-295): > 100 µM (inactive) | GI50 (HOP-92): > 100 µM (inactive) | GI50 (U-251): > 100 µM (inactive) | GI50 (SK-OV-3): > 100 µM (inactive) | GI50 (OVCAR-3): > 100 µM (inactive) | GI50 (BT-549): > 100 µM (inactive) | GI50 (OVCAR-4): > 100 µM (inactive) | GI50 (HOP-62): > 100 µM (inactive) | GI50 (SNB-19): > 100 µM (inactive) | GI50 (HCT-116): > 100 µM (inactive) | GI50 (HL-60): > 100 µM (inactive) | GI50 (COLO 205): > 100 µM (inactive) | GI50 (NCI/ADR-RES): > 100 µM (inactive) | GI50 (PC-3): > 100 µM (inactive) | GI50 (UACC-257): > 100 µM (inactive) | GI50 (SNB-75): > 100 µM (inactive) | GI50 (HT-29): > 100 µM (inactive) | GI50 (MCF7): > 100 µM (inactive) | GI50 (LOX IMVI): > 100 µM (inactive) | GI50 (UACC-62): > 100 µM (inactive) | GI50 (T47D): > 100 µM (inactive) | GI50 (HCT-15): > 100 µM | GI50 (OVCAR-5): > 100 µM (inactive) | GI50 (786-0): > 100 µM (inactive) | GI50 (A498): 67.5 µM (inactive) | GI50 (DU-145): > 100 µM (inactive) | GI50 (SR): > 100 µM (inactive) | GI50 (HCC 2998): 46.3 µM (inactive) | GI50 (ACHN): > 100 µM (inactive) | GI50 (MDA-MB-231): > 100 µM (inactive) | GI50 (SF-268): > 100 µM (inactive) | GI50 (CAKI-1): > 100 µM (inactive) | GI50 (SK-MEL-5): > 100 µM (inactive) | GI50 (TK-10): > 100 µM (inactive) | GI50 (SK-MEL-28): > 100 µM (inactive) | GI50 (EKVX): > 100 µM (inactive) | GI50 (KM12): > 100 µM (inactive) | GI50 (M14): > 100 µM (inactive) | GI50 (SN12C): > 100 µM (inactive) | GI50 (RPMI-8226): > 100 µM (inactive) | GI50 (NCI-H23): > 100 µM (inactive) | GI50 (Hs-578T): > 100 µM (inactive) | GI50 (NCI-H522): > 100 µM (inactive) | GI50 (RXF 393): > 100 µM (inactive) | GI50 (SF-539): > 100 µM (inactive) | GI50 (A549): > 100 µM (inactive) | GI50 (MDA-N): > 100 µM (inactive) | GI50 (IGROV-1): > 100 µM (inactive) | GI50 (K562): > 100 µM (inactive) | GI50 (UO-31): > 100 µM (inactive) | GI50 (Malme-3M): > 100 µM (inactive) | GI50 (MDA-MB-435): > 100 µM (inactive) | GI50 (SW-620): > 100 µM (inactive) | GI50 (MOLT-4): > 100 µM (inactive) | GI50 (NCI-H460): > 100 µM (inactive)
